Source: ChEMBL document CHEMBL1201862, “PubChem BioAssay data set” (2004)
Active and inactive are the calls of the source.

Experiments:
Nonstructural protein 1 = Nonstructural protein 1 (Influenza A virus, UniProt Q194T2); type: functional, Influenza A virus (A/California/07/2009(H1N1))
cells [1] = type: functional, cell-based
cells [2] = type: functional, cell-based; remark: listed apart in the source
[3] = biological target: Voltage-dependent T-type calcium channel subunit alpha-1H (Homo sapiens, UniProt O95180); type: functional;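 further: channel activity triggered by adding a high calcium stimulation buffer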
Voltage-dependent T-type calcium channel subunit alpha-1H, sequence (O95180 whole entry): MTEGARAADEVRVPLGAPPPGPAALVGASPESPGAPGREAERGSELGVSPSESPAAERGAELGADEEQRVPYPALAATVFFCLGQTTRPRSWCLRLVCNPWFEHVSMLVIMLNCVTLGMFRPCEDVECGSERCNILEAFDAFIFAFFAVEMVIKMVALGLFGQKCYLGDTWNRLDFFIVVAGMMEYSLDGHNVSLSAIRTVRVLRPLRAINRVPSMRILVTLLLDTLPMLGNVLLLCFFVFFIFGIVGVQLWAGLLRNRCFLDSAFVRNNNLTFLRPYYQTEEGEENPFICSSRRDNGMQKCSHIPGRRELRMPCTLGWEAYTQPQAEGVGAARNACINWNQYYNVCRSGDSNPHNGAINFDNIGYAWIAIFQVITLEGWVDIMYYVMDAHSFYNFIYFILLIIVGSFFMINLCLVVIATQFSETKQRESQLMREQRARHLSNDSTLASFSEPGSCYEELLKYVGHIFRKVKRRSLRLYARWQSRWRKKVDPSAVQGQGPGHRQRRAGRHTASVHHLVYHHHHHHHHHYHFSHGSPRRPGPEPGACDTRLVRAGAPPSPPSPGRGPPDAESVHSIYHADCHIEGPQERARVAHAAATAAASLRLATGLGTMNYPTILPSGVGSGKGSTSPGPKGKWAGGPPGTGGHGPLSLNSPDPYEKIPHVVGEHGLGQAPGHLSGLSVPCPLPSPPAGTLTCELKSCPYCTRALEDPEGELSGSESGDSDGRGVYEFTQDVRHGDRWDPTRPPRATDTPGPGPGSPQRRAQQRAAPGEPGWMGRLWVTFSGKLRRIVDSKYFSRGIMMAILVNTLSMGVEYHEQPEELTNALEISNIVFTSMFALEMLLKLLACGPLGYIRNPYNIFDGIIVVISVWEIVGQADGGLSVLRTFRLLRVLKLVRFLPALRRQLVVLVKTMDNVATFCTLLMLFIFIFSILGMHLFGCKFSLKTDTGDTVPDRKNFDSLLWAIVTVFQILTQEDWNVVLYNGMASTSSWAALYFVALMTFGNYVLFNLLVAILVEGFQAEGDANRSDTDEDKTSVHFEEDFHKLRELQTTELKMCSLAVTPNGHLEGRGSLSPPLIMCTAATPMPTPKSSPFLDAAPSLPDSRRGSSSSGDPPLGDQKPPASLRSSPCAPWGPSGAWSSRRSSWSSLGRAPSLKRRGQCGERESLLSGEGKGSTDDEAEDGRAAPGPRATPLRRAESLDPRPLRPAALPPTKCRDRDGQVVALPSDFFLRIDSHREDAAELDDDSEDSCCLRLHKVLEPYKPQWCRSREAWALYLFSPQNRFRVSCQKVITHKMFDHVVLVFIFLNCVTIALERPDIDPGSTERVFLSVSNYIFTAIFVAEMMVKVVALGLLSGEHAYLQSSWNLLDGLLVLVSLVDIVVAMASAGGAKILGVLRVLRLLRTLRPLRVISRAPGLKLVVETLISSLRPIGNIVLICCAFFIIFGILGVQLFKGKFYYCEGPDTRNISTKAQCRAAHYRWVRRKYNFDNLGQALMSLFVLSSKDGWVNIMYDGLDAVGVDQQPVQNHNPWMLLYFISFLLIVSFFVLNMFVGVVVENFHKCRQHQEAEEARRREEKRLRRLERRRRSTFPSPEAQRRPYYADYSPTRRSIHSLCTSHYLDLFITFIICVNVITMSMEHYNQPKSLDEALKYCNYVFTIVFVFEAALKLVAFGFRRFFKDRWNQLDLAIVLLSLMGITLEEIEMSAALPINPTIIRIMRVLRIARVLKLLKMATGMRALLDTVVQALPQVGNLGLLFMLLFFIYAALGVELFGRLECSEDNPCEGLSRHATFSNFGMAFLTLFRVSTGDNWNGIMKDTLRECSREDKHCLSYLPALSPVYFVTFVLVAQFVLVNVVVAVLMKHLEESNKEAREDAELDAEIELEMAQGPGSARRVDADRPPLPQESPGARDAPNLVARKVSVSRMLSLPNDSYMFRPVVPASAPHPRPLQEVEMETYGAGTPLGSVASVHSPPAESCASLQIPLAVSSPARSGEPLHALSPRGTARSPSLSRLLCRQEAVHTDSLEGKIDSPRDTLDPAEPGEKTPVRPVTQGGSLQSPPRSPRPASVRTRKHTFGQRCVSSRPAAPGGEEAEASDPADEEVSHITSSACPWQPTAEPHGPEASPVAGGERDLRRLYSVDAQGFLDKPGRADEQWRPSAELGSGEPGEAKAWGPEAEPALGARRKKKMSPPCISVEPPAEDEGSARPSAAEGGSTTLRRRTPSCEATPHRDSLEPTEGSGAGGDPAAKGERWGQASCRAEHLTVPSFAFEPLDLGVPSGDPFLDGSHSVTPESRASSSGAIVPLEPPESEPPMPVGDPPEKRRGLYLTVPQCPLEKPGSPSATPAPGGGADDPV

cells [4] = type: functional
[5] = blockers of HIV-1 envelope-mediated cell-cell fusion – cherry-pick, dose response (AID 652057); type: functional, cell-based
[6] = Luminescence Cell-Based Dose Response HTS to Identify Inhibitors of 5'UTR Stem-Loop Driven Prion Protein mRNA Translation in H4 Neuroglioblastoma Cells. [Related pubchem assays: 1827 (Project Summary), 1813 (Primary HTS)]; type: functional
[7] = off-target signal loss in HeLa-CEM21 co-culture – HeLa F-luc CTL cells, cherry-picked, counter-screen for HIV-1 Env fusion inhibitor project, dose response (AID 652040); type: functional, cell-based;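 further: potency for signal decrease marking cytotoxic or nonspecific inhibition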
[8] = luciferase reporter signal suppression in cells – H4 neuroglioma cells, luminescence, dose response (AID 1990); type: functional, cell-based
[9] = blockers of HIV-1 ZM109 envelope-driven cell-cell fusion – HeLa effector, CEM target cells, luciferase, cherry-pick, dose response (AID 652058); type: functional, cell-based;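 further: luciferase signal from HIV-1 Env mediated cell-cell fusion of effector and target cells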
[10] = HIV-1 AD8 envelope cell-cell fusion blockers – cherry-pick, dose response (AID 652062); type: functional, cell-based;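 further: luciferase signal from cell-cell fusion driven by HIV-1 clade B AD8 Env; potency is for inhibitors of fusion seen as a drop in luminescence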
Cytochrome P450 3A4 = Cytochrome P450 3A4 (Homo sapiens, UniProt P08684);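 further: CYP3A4 tested as one member of a cytochrome P450 panel screen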
Cytochrome P450 2C9 = Cytochrome P450 2C9 (Homo sapiens, UniProt P11712)
Cytochrome P450 2C9, sequence (P11712 whole entry): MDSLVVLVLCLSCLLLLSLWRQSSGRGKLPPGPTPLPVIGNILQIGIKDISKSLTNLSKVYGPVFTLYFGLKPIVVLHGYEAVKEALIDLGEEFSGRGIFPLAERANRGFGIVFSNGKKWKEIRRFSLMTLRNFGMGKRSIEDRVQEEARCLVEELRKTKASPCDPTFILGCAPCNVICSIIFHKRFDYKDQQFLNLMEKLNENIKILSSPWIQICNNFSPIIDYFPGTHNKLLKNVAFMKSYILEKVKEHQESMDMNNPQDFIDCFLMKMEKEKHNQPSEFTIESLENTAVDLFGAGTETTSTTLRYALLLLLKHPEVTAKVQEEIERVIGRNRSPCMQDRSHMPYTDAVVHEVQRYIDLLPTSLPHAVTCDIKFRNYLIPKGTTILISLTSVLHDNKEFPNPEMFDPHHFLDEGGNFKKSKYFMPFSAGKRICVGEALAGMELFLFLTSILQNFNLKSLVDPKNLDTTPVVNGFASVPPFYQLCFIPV

[11] = toxicity toward HepG2 liver cells – cell-based, plate reader, cherry-pick, antagonist series, cytotoxicity control, dose response (AID 743416); type: functional
[12] = biological target: FAD-linked sulfhydryl oxidase ALR (Homo sapiens, UniProt P55789); assay: ALR-catalysed DTT oxidation blockers – biochemical, H2O2 detection, luminescence, cherry-pick, dose response (AID 493248)
FAD-linked sulfhydryl oxidase ALR, sequence (P55789 whole entry): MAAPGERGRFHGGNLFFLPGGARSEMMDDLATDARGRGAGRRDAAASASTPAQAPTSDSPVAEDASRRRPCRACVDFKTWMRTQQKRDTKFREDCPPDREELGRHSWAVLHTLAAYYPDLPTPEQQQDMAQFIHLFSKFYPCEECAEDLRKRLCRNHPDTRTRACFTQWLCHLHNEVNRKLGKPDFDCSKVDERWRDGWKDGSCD

[13] = blockade of melanocortin 4 receptor signaling – cell-based, plate reader, cherry pick, counter-screen for LGR2 antagonist project, dose response (AID 743444); type: functional;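 further: transfected HEK 293 cells stimulated with alpha-MSH peptide; potency of inhibitors of the alpha-MSH evoked signal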
[14] = blockers of bursicon-stimulated LGR2 cAMP reporter – cell-based, HEK293, CRE-luciferase reporter, cherry pick, set 2, dose response (AID 743343); type: functional;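 further: transfected cells were stimulated with diluted bursicon conditioned medium after compound addition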
BJ [15] = assay: BJ-TERT-LT-ST fibroblast viability loss – cell-based, RAS-independent, luminescence, dose response (AID 1935); type: functional; details: Homo sapiens;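 further: BJ fibroblasts immortalized with TERT plus LT and ST oncogenes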
BJ [16] = assay: cells; type: functional, cell-based; details: Homo sapiens
BJ [17] = assay: BJ-TERT fibroblast viability loss – cell-based, RAS-independent, luminescence, dose response (AID 1933); type: functional; details: Homo sapiens
[18] = DRD fibroblast viability loss – cell-based, non-viral oncogenic, luminescence, dose response (AID 1934); type: functional; details: Homo sapiens
[19] = Luminescence Cell-Based Dose Retest to Confirm Inhibitors of Cancer Stem Cells. [Related pubchem assays (depositor defined):AID2717, AID2721]; type: functional; details: Homo sapiens
Cytochrome P450 2C19 = Cytochrome P450 2C19 (Homo sapiens, UniProt P33261); assay: Cytochrome panel assay with activity outcomes. Panel member name: p450-cyp2c19 Compounds with AC50 equal or less than 10 uM are considered active; type: functional; details: read-out: AC50
Cytochrome P450 2C19, sequence (P33261 whole entry): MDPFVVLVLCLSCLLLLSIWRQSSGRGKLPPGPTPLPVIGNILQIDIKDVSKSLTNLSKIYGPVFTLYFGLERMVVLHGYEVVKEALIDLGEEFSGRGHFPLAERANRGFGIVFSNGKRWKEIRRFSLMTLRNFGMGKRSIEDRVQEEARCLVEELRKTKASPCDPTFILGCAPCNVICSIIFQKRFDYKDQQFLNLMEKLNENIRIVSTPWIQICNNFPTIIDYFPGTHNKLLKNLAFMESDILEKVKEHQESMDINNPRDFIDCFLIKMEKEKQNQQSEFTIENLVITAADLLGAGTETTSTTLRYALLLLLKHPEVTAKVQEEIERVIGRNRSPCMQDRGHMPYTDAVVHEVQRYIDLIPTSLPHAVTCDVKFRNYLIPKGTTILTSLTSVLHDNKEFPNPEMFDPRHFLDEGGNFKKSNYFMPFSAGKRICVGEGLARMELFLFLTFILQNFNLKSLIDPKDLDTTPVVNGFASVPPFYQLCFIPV

Cytochrome P450 2D6 = Cytochrome P450 2D6 (Homo sapiens, UniProt P10635);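 further: CYP2D6 member of a cytochrome P450 panel assay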
Cytochrome P450 2D6, sequence (P10635 whole entry): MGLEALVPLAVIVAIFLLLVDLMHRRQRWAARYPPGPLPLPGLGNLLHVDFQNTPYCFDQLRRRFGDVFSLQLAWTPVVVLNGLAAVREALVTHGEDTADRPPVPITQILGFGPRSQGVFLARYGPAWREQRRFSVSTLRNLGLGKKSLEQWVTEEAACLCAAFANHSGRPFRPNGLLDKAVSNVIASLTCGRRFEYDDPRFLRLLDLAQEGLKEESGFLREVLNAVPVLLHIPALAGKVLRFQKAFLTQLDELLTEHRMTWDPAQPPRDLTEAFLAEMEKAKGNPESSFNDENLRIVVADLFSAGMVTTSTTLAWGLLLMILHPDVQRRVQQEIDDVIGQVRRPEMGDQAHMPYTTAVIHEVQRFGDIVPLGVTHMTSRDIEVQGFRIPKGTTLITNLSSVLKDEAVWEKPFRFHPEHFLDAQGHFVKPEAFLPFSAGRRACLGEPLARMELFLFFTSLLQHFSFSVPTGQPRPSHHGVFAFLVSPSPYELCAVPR

H9c2 = assay: cells; type: functional, cell-based; details: Rattus norvegicus, H9c2, Myocardium;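 further: confirmatory concentration-response retest of ultra-high-throughput screening hits for modulation of myocardial damage; cell death induced by hydrogen peroxide oxidative stress; compound pretreatment for 60 min then peroxide exposure for 2 h; potency is for protecting the cells against peroxide damage rather than for killing them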
[20] = biological target: T1, Long-chain-fatty-acid--AMP ligase FadD28 (Mycobacterium tuberculosis, UniProt P9WQ59); assay: Fluorescence polarization aasay to screen for inhibitors that compete for the binding of FadD28 to a bisubstrate Measured in Biochemical System Using Plate Reader - 2147-01_Inhibitor_Dose_CherryPick_Activity.; type: functional, Mycobacterium tuberculosis H37Rv
T1 sequence (P9WQ59 whole entry): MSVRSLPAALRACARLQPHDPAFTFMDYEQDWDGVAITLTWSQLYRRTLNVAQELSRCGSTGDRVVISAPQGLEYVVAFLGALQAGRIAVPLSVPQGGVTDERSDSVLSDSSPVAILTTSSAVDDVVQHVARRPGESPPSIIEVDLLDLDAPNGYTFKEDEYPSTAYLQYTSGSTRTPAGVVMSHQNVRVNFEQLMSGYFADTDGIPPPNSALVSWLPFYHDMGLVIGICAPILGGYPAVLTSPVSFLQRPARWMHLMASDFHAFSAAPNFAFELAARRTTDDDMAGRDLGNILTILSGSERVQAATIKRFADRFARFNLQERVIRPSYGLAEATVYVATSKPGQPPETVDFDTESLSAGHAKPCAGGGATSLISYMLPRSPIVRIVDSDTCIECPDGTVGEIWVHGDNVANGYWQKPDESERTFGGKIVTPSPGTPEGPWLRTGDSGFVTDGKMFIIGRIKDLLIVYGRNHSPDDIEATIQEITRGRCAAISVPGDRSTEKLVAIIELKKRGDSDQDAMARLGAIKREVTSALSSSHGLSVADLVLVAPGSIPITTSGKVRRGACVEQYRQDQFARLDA

[21] = A549 cell cytotoxicity, dose response, cytotoxicity control, plate reader, cherry-pick, antagonist series (AID 743412); type: functional, cell-based
Paired box protein Pax-8 = Paired box protein Pax-8 (Homo sapiens, UniProt Q06710); assay: PAX8 transcriptional activity inhibition in RMG-I – RMG-I cells, luciferase, cherry-pick, dose response (AID 687027); type: functional, cell-based;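 further: luciferase reporter driven by Pax8 target thyroperoxidase promoter measured by SteadyGlo luminescence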
Paired box protein Pax-8, sequence (Q06710 whole entry): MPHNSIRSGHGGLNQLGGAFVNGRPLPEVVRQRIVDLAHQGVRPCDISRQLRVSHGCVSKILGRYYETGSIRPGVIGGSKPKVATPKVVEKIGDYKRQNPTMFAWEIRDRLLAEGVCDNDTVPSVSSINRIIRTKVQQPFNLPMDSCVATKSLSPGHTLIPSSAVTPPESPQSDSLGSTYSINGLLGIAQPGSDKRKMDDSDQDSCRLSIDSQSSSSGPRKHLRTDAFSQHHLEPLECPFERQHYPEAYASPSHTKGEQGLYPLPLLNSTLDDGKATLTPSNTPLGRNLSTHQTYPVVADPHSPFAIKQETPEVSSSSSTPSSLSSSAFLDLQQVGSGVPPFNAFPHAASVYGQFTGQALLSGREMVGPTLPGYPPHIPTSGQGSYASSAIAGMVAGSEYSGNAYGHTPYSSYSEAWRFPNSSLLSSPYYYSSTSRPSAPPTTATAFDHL

P388/ADR = assay: cells; type: functional; details: Mus musculus
SN12K1 = assay: cells; type: functional; details: Homo sapiens
P388 = assay: cells; type: functional; details: Mus musculus

Nonstructural protein 1, sequence (Q194T2 whole entry): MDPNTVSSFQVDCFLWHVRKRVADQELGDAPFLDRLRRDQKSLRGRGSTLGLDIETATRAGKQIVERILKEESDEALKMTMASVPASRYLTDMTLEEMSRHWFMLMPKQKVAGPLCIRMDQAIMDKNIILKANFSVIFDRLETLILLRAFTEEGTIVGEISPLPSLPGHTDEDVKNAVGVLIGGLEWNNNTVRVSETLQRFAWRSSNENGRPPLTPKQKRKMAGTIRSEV

In the case of `O=S(=O)(c1ccc(NC(=S)NN=C2CCCCC2)cc1)N1CCOCC1`, the IC50 (Nonstructural protein 1) is reported as 24.8 µM (active).

With `Cc1[nH]c2ccccc2c1CN1CCc2ccccc2C1` the EC50 (cells [1]) was > 29.9 µM (inactive) and the IC50 (cells [2]) was > 29.9 µM (inactive).

In the case of `Cc1ccc(-c2noc(CCC(=O)Nc3cccc(C#N)c3)n2)cc1`, the EC50 [3] is reported as 2.84 µM (active) and the IC50 (cells [4]) is reported as 19.9 µM (active).

For `C=CCc1cc(C)ccc1OCC(O)CN1CCN(c2ccccc2)CC1` (configuration not stated), the EC50 [3] was 8.33 µM (active).

For `COc1ccc(NC(=O)c2cc(CC(C)C)nc3ccccc23)cc1`, the AC50 [5] was 0.655 µM (active), the EC50 [6] was > 120 µM (not active) and the AC50 [7] was 1.06 µM (active). The EC50 [8] was > 120 µM (not active), the AC50 [9] was < 0.26 µM (active) and the AC50 [10] was 1.11 µM (active).

For `CC(NC1=NCCS1)c1ccccc1` (configuration not stated), the EC50 (cells [1]) was > 29.9 µM (inactive) and the IC50 (cells [2]) was > 29.9 µM (inactive).

For `COc1ccc(Oc2ncc3nc(-c4cn(C)c5ccccc45)c(=O)n(C)c3n2)cc1`, the AC50 (Cytochrome P450 3A4) was 15.8 µM (inconclusive) and the AC50 (Cytochrome P450 2C9) was “inconclusive”.

For `Cc1ccccc1-n1nc2c(c1NC(=O)c1ccc(Br)o1)CSC2`, the EC50 [3] was 5.29 µM (active).

For `Cc1nc2cnc(N(C)C)nc2n(Cc2ccc(F)cc2)c1=O`, the AC50 (Cytochrome P450 2C9) was “inconclusive”.

With `COc1ccc(C(c2nnnn2Cc2ccc(F)cc2)N2CCN(c3ccccc3)CC2)cc1` (configuration not stated) the EC50 [3] was 2.66 µM (active).

For `CN(C)c1ccc(C(=O)Nc2nc3c(s2)CCCC3)cc1`, the AC50 [11] was 51.1 µM (active), the AC50 [12] was 0.188 µM (active) and the AC50 [13] was 11.4 µM (active). For the same compound, the AC50 [14] was 8.81 µM (active).

For `Cc1ccc(S(=O)(=O)N(CC(=O)N2CCN(c3ccc(F)cc3)CC2)C2CCCCC2)cc1`, the EC50 [3] was 4.33 µM (active).

For `CCOc1ccccc1NC1=C(Cl)C(=O)N(Cc2ccccc2)C1=O`, the EC50 (BJ [15]) was > 150 µM (not active), the EC50 (BJ [16]) was > 150 µM (not active) and the EC50 (BJ [17]) was > 150 µM (not active). The EC50 [18] was > 150 µM (not active).

For `Clc1ccc(CSc2nnnn2-c2ccc3c(c2)OCO3)c(Cl)c1`, the EC50 [3] was 9.79 µM (active) and the AC50 [19] was 13.1 µM (active).

In the case of `COc1ccccc1CNc1cc(-c2cccc(NS(C)(=O)=O)c2)ncn1`, the AC50 (Cytochrome P450 2C19) is reported as 20 µM (inconclusive) and the AC50 (Cytochrome P450 2C9) is reported as “inconclusive”.

For `CCC(=O)Nc1cccc(-c2nnc(-c3cccc(NC(=O)CC)c3)o2)c1`, the AC50 (Cytochrome P450 2D6) was 17.8 µM (inconclusive), the IC50 (H9c2) was > 79 µM (inactive) and the AC50 (Cytochrome P450 2C9) was “inconclusive”.

With `CCc1nc(Sc2nnnn2-c2ccccc2)c2c3c(sc2n1)CCCC3` the AC50 [13] was 5.14 µM (active) and the AC50 [14] was 5.1 µM (active).

With `Cc1cccc(NC(=O)CN2C(=O)N/C(=C/c3ccc(-c4cccc(C(=O)O)c4C)o3)C2=O)c1` the AC50 [20] was 72.3 µM (active).

In the case of `S=C(NCc1ccccc1)NCc1cccc(CNC(=S)NCc2ccccc2)c1`, the AC50 [20] is reported as 27.3 µM (active).

In the case of `Cc1nc2ncnn2c(N2CCCC(C(=O)Nc3ccc4c(c3)CCC4)C2)c1C` (configuration not stated), the AC50 [5] is reported as 3.21 µM (active), the AC50 [7] is reported as 3.66 µM (active) and the AC50 [9] is reported as 17.1 µM (active). For the same compound, the AC50 [10] was 8.01 µM (active).

For `O=S(=O)(c1ccc(Cl)cc1)N1CCCN(c2nc3ccc(Cl)cc3s2)CC1`, the AC50 [5] was 3.94 µM (active), the AC50 [7] was 4.14 µM (active) and the AC50 [9] was 0.922 µM (active). The AC50 [10] was 5.18 µM (active).

With `COCCOC(=O)c1[nH]c2c(c1C)C(=O)CC(c1cccs1)C2` (configuration not stated) the EC50 (BJ [15]) was 3.8 µM (active), the EC50 (BJ [16]) was 66.4 µM (active) and the EC50 (BJ [17]) was 4.56 µM (active). The EC50 [18] was 12.9 µM (active).

With `CCOC(=O)[C@@H]1[C@H]2COc3cc(OC)ccc3[C@H]2N2C(=O)N(c3cccc(F)c3)C(=O)[C@@]12C` the AC50 [5] was 35.2 µM (active).

For `c1ccc(COc2cccc(-c3cc4nc(NCCCn5ccnc5)ccn4n3)c2)cc1`, the AC50 [11] was > 52 µM (inactive) and the AC50 [21] was 40 µM (active).

With `CC(=O)Nc1ccc(S(=O)(=O)c2ccnc3cc(Cl)ccc23)cc1` the AC50 (Paired box protein Pax-8) was 0.449 µM (active), the AC50 [21] was 26.9 µM (active) and the AC50 [14] was 66.3 µM (active).

With `CN1C(C(=O)NCCc2cccs2)CC2Cn3c(nc4ccccc43)C21` (configuration not stated) the EC50 (cells [1]) was > 29.9 µM (inactive) and the IC50 (cells [2]) was > 29.9 µM (inactive).

For `CCCC[S+]([O-])CC(CO)NC(=O)/C=C/c1c(C)[nH]c(=O)[nH]c1=O` (configuration not stated), the GI50 (P388/ADR) was 1.5 µM (inactive), the GI50 (SN12K1) was 6.01 µM (inactive) and the GI50 (P388) was 1.58 µM (inactive).

In the case of `N/C(=N\O)N/N=C\c1ccc(O)c(O)c1O`, the GI50 (P388/ADR) is reported as 8.65 µM (inactive), the GI50 (SN12K1) is reported as 17.7 µM (inactive) and the GI50 (P388) is reported as 14.4 µM (inactive).

With `S=c1sc2c(s1)SC(c1ccccc1)CS2` (configuration not stated) the GI50 (P388/ADR) was 44.6 µM (inactive), the GI50 (SN12K1) was > 89.5 µM (inactive) and the GI50 (P388) was 9.86 µM (inactive).

In the case of `COc1cc(/N=N\c2cccc(S(=O)(=O)O)c2)ccc1/N=N\c1ccc(/C=C/c2ccc(-n3on3-c3ccc(/C=C/c4ccc(/N=N/c5ccc(/N=N\c6cccc(S(=O)(=O)O)c6)cc5OC)cc4S(=O)(=O)O)c(S(=O)(=O)O)c3)cc2S(=O)(=O)O)c(S(=O)(=O)O)c1`, the GI50 (P388/ADR) is reported as > 100 µM (inactive), the GI50 (SN12K1) is reported as > 100 µM (inactive) and the GI50 (P388) is reported as > 100 µM (inactive).

In the case of `COC(=O)C[C@H]1C=C[C@H](NC(=O)c2ccccn2)[C@@H](CO)O1`, the AC50 [9] is reported as 0.414 µM (active).

With `COc1cc(C2c3cc4c(cc3[C@@H](Nc3ccc(Oc5ccccc5)cc3)C3COC(=O)[C@H]23)OCO4)cc(OC)c1O` (some centres not stated) the GI50 (P388/ADR) was 0.407 µM (active), the GI50 (SN12K1) was 0.935 µM (active) and the GI50 (P388) was 0.0504 µM (active).

With `CCOc1cccc(/C=N/N2C(=O)CSC2=S)c1O` the IC50 (Nonstructural protein 1) was 1.83 µM (active).

For `Cc1c2ccncc2c(C)c2c1[nH]c1ccc(Cl)cc12`, the GI50 (P388/ADR) was 1.83 µM (inactive), the GI50 (SN12K1) was 2.94 µM (inactive) and the GI50 (P388) was 1.63 µM (inactive).

For `CC(CN1CC(=O)NC(=O)C1)N1CC(=O)NC(=O)C1` (configuration not stated) [RAZOXANE], the GI50 (P388/ADR) was 141 µM (inactive), the GI50 (SN12K1) was 58.1 µM (inactive) and the GI50 (P388) was 1.85 µM (inactive).
